Test results published in patent US20240041977A1, “ANNEXIN A1 N-TERMINAL PEPTIDE FORMULATIONS AND METHODS” (ResoTher Pharma A/S, priority 2020, published 2024).
Marks after values point to notes of the source that are not given here. Ends that are not written are not given here.

Assays:
[1] = Visual appearance of solution; type: physicochemical
[2] = ThT assay lag-time (fibrillation propensity, physical stability); type: physicochemical
Description: ThT is widely used to visualize and quantify the presence of misfolded peptide and protein aggregates called amyloids or fibrils. ThT is a fluorescent molecule that binds to inter molecular beta-sheets in peptides and proteins (here AnxA1). […] A weaker fluorescence intensity is indicative of less amyloids or fibrils present with fewer intermolecular beta-sheets where ThT can bind. Some peptides have a tendency to form fibrils and amyloids and the propensity is dependent on the formulation conditions in an unpredictable manor. Fibrillation is a stochastic process and to avoid long analysis times and both false negatives and positive results, shear stress is introduced to the sample by rigorous rotation in microtiter plates while continuously monitoring the fluorescence emission at approximately 486 nm. An increase in the fluorescence is an indication of the formation of amyloids or fibrils and the time it takes for the fluorescence to start increasing is known as the lag-time. A faster (short) lag-time is an indication of higher propensity for the peptide to degrade by formation of fibrils or amyloids. A ThT fluorescence of 50 AU at t=0 is considered noise or background. Lag time is reported as the time it takes for the signal intensity to exceed 50 AU. All samples for the ThT assay were filtered through cellulose acetate filters ([…], Ø=13 mm, rinsed with MilliQ® water prior to filtration). For each sample, 20 μL ThT of a 1 mM solution was added to 1 mL peptide solution. From this sample mixture, 200 μL was transferred into n wells in a 96 well microtiter plate (n=3-6). 96-well NUNC plates Bottom optics and Sealing tape, Thermo Scientific™ Nunc™ Sealing Tapes, was used. Lag-time is reported as an average of n samples. A fluorescence plate reader (CLARIOstar® Plus, BMG Labtech) was used for the experiments with the following setting: Excitation wavelength 450 nm; Dichroic filter 465 nm; Emission wavelength 486 nm; Focal height 3.5 mm; Gain 1000; […]; […]; Number of flashes per well 20; Temperature 25° C.; Shake mode orbital, Frequency of 300 rpm, 200 s, and shake after each cycle. If possible, the average of all ThT data replicates are used for ThT lag-time determination. In case of very stochastic data, worst-case data is used for lag-time evaluation. ThT lag-time was determined using either a 1-step or 2-step sigmoidal curve.

For “AMVSEFLKQAWFIENEEQEYVQTLKSSKGGPGSAVSPYPTFNPSSDV-NH2 [AnxA1]”, the appearance ([1]; 20 mg AnxA1 per mL 0.9% NaCl, neutral pH, after over night at room temperature on rotation) was “opaque gel like substance”, the appearance ([1]; AnxA1 3.3, 1.6 and 0.8 mg/mL in Milli Q water, 0.9% NaCl (154 mM), at pH 6.0) was “opaque” and the appearance ([1]; AnxA1 3.3, 1.6 and 0.8 mg/mL in Milli Q water, 0.9% NaCl (154 mM), immediately below pH 6.0) was “precipitated”. For the same substance, the “fibrillation in ThT assay” value ([2]; 6.4 mg/mL, possibly 5.0 mg/ml, and above, 0.9% NaCl) was “already degraded by the formation of fibrils at time zero”, the lag-time ([2]; 10 mM tris, pH 7.5, AnxA1 1.7 mg/mL containing 5% mannitol or sorbitol) was over 65 h and the Lag-time ([2]; AnxA1 1.4 mg/mL, mannitol 4 wt.%, sucrose 2.5 wt.%, glycyl-glycine 50 mM, pH 8.5) was over 65 h. It also gave a Lag-time ([2]; AnxA1 1.4 mg/mL, sucrose 10 wt.%, glycyl-glycine 50 mM, pH 8.5) of over 65 h, an Avg. lag-time ([2]; AnxA1 1.5 mg/mL, NaCl 0.9%, ZnCl2 0.77 mM, pH N/A) of 1.8 h and an Avg-lag time ([2]; AnxA1 1.5 mg/mL, glucose 5 wt.%, pH 7.1) of 21.7 h. The Lag-time ([2]; AnxA1 1.5 mg/mL, mannitol 4 wt.%, sucrose 2.5 wt.%, glycyl-glycine 10 mM, pH 7.5) was over 65 h, the Lag-time ([2]; AnxA1 1.5 mg/mL, mannitol 4 wt.%, sucrose 2.5 wt.%, glycyl-glycine 50 mM, pH 7.6) was over 65 h and the Lag-time ([2]; AnxA1 1.5 mg/mL, mannitol 5 wt.%, glycyl-glycine 10 mM, pH 7.4, analysis timeframe 65 hours) was >65* hours. It also gave a Lag-time ([2]; AnxA1 1.5 mg/mL, mannitol 5 wt.%, glycyl-glycine 50 mM, pH 7.5) of over 65 h, a Lag-time ([2]; AnxA1 1.5 mg/mL, sucrose 10 wt.%, Tris 10 mM, pH 7.5) of 42.8 h and a Lag-time ([2]; AnxA1 1.5 mg/mL, sucrose 10 wt.%, glycyl-glycine 10 mM, pH 8.3) of over 65 h. For the same substance, the Avg. lag-time ([2]; AnxA1 1.6 mg/mL in Milli Q water, no salt, pH 7.5, maximum assay time 50 hours) was >50.0* h, the Avg. lag-time ([2]; AnxA1 1.6 mg/mL in Milli Q water, no salt, pH 7.6, maximum assay time 50 hours) was >50.0* h and the Avg. lag-time ([2]; AnxA1 1.6 mg/mL, 0.9% NaCl in Milli Q water, pH 7.1) was 28.3 h. The Avg. lag-time ([2]; AnxA1 1.6 mg/mL, CaCl2 0.77 mM, pH 7.2) was 12.5 h, the Avg. lag-time ([2]; AnxA1 1.6 mg/mL, CaCl2 0.77 mM, pH 7.4) was 10.8 h and the Avg. lag-time ([2]; AnxA1 1.6 mg/mL, NaCl 0.9%, CaCl2 0.77 mM, pH 7.1) was 5.4 h. The Lag-time ([2]; AnxA1 1.6 mg/mL, mannitol 4 wt.%, sucrose 2.5 wt.%, glycyl-glycine 10 mM, pH 8.4) was over 65 h, the Lag-time ([2]; AnxA1 1.6 mg/mL, mannitol 5 wt.%, glycyl-glycine printed as 'e' mM, pH 8.3) was over 65 h and the Lag-time ([2]; AnxA1 1.6 mg/mL, mannitol 5 wt.%, glycylglycine 10 mM, pH 8.0, no increase in fluorescence within 65 hours) was > 65* hours. The Avg-lag time ([2]; AnxA1 1.6 mg/mL, mannitol 5 wt.%, pH 6.7, no increase in fluorescence within 65 hours) was > 65* h, the Lag-time ([2]; AnxA1 1.6 mg/mL, sucrose 10 wt.%, glycyl-glycine 50 mM, pH 7.6) was 64.7 h and the Lag-time ([2]; AnxA1 1.6 mg/mL, sucrose 10 wt.%, glycylglycine 10 mM, pH 8.0, no increase in fluorescence within 65 hours) was > 65* hours. For the same substance, the Avg-lag time ([2]; AnxA1 1.6 mg/mL, sucrose 10 wt.%, pH 7.2, no increase in fluorescence within 65 hours) was > 65* h, the Avg-lag time ([2]; AnxA1 1.6 mg/mL, trehalose 10 wt.%, pH 7.2) was 33.3 h and the Avg. lag-time ([2]; AnxA1 1.7 mg/mL in Milli-Q water, pH 7.4, no increase in fluorescence within 65 hours) was > 65* h. The Lag-time ([2]; AnxA1 1.7 mg/mL, mannitol 5 wt.%, Tris 10 mM, pH 7.5, no increase in fluorescence within 65 hours) was > 65* hours, the Lag-time ([2]; AnxA1 1.7 mg/mL, sorbitol 5 wt.%, Tris 10 mM, pH 7.6, no increase in fluorescence within 65 hours) was > 65* hours and the Lag-time ([2]; AnxA1 1.7 mg/mL, sorbitol 5 wt.%, glycylglycine 10 mM, pH 8.0, no increase in fluorescence within 65 hours) was > 65* hours. For the same substance, the Avg. lag-time ([2]; AnxA1 3.1 mg/mL in Milli-Q water, pH 7.4) was 50.4 h, the Lag-time ([2]; AnxA1 3.1 mg/mL, mannitol 5 wt.%, glycylglycine 10 mM, pH 8.0, no increase in fluorescence within 65 hours) was > 65* hours and the Avg. lag-time ([2]; AnxA1 3.2 mg/mL in Saline (0.9% NaCl), pH 7.4) was 5.6 h. For the same substance, the Avg. lag-time ([2]; AnxA1 3.2 mg/mL, 0.9% NaCl in Milli Q water, pH 7.4) was 9.3 h, the Avg. lag-time ([2]; AnxA1 3.2 mg/mL, NaCl 0.9%, pH 7.2) was 9.7 h and the Lag-time ([2]; AnxA1 3.2 mg/mL, mannitol 5 wt.%, glycylglycine 10 mM, pH 8.0, no increase in fluorescence within 65 hours) was > 65* hours. The Lag-time ([2]; AnxA1 3.3 mg/mL, mannitol 5 wt.%, glycylglycine 10 mM, pH 8.0, no increase in fluorescence within 65 hours) was > 65* hours, the Lag-time ([2]; AnxA1 4.0 mg/mL, mannitol 5 wt.%, glycyl-glycine 10 mM, pH 8.2) was over 65 h and the Lag-time ([2]; AnxA1 4 mg/mL, tonicity 100%, NaCl 0.9 wt%, positive control sample in 0.9% saline) was 8.2* hours. The Avg. lag-time ([2]; AnxA1 4.6 mg/mL in Milli-Q water, pH 7.4) was 61.4 h, the Lag-time ([2]; AnxA1 4.6 mg/mL, sorbitol 5 wt.%, glycylglycine 10 mM, pH 8.0, no increase in fluorescence within 65 hours) was > 65* hours and the Lag-time ([2]; AnxA1 4.6 mg/mL, sucrose 10 wt.%, glycyl-glycine 30 mM, pH 8.0) was 39 h. The Lag-time ([2]; AnxA1 4.7 mg/mL, mannitol 5 wt.%, Tris 10 mM, pH 7.5) was 10.7 h and the Lag-time ([2]; AnxA1 4.7 mg/mL, mannitol 5 wt.%, glycylglycine 10 mM, pH 8.0, no increase in fluorescence within 65 hours) was > 65* hours.
